From patent US11207430B2, “Gadolinium expressed lipid nanoparticles for magnetic resonance imaging” (University of Washington, priority 2009, dated 2021)
“Also recorded” adds a separate entry of the source.

Assays:
[1] = test system: lymph nodes; assay: Primate lymphatic MRI study (DCE MRI after subcutaneous injection); type: in vivo, M. Nemestrina; settings: animals injected subcutaneously
Experimental: In vivo imaging of the lymph nodes using Gd-DTPA-lipid nanoparticles for dynamic contrast enhanced (DCE) MRI was performed in a 1.5T MR scanner. The pigtailed macaque (M. Nemestrina) was anesthetized with inhaled isofluorane (1-2%) and closely monitored during the experiments. A pre-contrast image of the primate was recorded to determine proper lymph node location and fine-tune the imaging parameters. The animal was removed from the MR scanner and injected subcutaneously at four sites. […] The total dose of Gd is estimated to be 24.4 μmol/kg for the primate studies.

[2] = test system: vasculature; assay: Rat vascular MRI study (DCE MRI after intravenous injection); type: in vivo; settings: 0.01 mmol/kg nanoparticles or 0.05 mmol/kg OMNISCAN, 5 min and 14-15 min
Experimental: In vivo imaging of the rat using Gd-DTPA-lipid nanoparticles for dynamic contrast enhanced (DCE) MRI was performed in a 3.0T MR scanner. The rats (SD) was anesthetized with inhaled isofluorane (1-2%) and closely monitored during the experiments. A pre-contrast image of the rat was recorded to determine proper location, orientation and fine-tune the imaging parameters. The animal was removed from the MR scanner and injected with […] of indicated Gd contrast media through femoral vein. The images were recorded on a Signa […] Scanner using a surface coil 12×12 inch.

[3] = clinical use; cited from earlier work

CNC(=O)CN(CCN(CCN(CC(=O)[O-])CC(=O)NC)CC(=O)[O-])CC(=O)[O-].[Gd+3] [OMNISCAN, Gd-DTPA-BMA]
Time within which signal in lymphatic system dissipates [1]: ≤ 20 min
Localization of contrast enhancement [2]: diffused throughout and does not localize in the vasculature, well-perfused tissues, or the lymph nodes; also recorded: diffuse contrast localization with no vascular definition
Clearance time [3]: cleared within a few minutes
